Columns and labels:
[1] = system: PBMCs from breast cancer patient OBCR25; experiment: proliferation assay (3H-thymidine) with h5T4 class II peptide pools and peptides; format: cell-based, human; settings: PBMCs of breast cancer patient OBCR25, 6 days incubation, 3H-thymidine pulse overnight
Description: FIG. 1 is a schematic diagram illustrating the proliferation assay for measuring cellular responses
A h5T4 peptide library was produced consisting of 51 20 mer peptides overlapping by […]. Class II peptide pools containing 5 peptides per pool were incubated with PBMCs from breast cancer patients OBCR24 and OBCR25 and proliferation was measures using the assay illustrated in FIG. 1. After 6 days incubation, cells were pulsed overnight with ^3H-thymidine and incubated overnight at 37° C.

PBMCs from OBCR25 = experiment: IFNγ ELISPOT assay after restimulation in vitro with h5T4 peptides; format: cell-based, human; settings: PBMCs from OBCR25 restimulated in vitro with h5T4 peptides
Description: FIG. 2 is a schematic diagram illustrating the ELISPOT assay for measuring antigen-specific IFNγ production.
To measure antigen-specific IFNγ production, an ELISPOT assay was conducted following the general scheme illustrated in FIG. 2.

Sequence: YRYEINADPRLTNLSSNSDV (listed as Homo sapiens) [peptide #51, extreme C-terminal 20 amino acids (401-420) of h5T4; 20 mer peptide of pool #10]
- proliferative response [1]: positive response
- IFNγ ELISPOT response (PBMCs from OBCR25): positive ELISPOT response
